Source: ChEMBL document CHEMBL4706550, “Design, synthesis and biological activities of piperidine-spirooxadiazole derivatives as α7 nicotinic receptor antagonists” (Eur J Med Chem, 2020)
The source made the active and inactive calls. No cut-off for these calls is given here.

Legend:
[1] = target: T1, Neuronal acetylcholine receptor subunit alpha-7 (Homo sapiens, UniProt P36544); test: Antagonist activity at human alpha7 nAChR expressed in Xenopus laevis oocytes assessed as inhibition of Ach-induced current at 100 uM measured at holding potential of -90 mV by two electrode voltage-clamp assay relative to control; format: cell-based; details: Oocyte
T1 sequence (P36544 whole entry): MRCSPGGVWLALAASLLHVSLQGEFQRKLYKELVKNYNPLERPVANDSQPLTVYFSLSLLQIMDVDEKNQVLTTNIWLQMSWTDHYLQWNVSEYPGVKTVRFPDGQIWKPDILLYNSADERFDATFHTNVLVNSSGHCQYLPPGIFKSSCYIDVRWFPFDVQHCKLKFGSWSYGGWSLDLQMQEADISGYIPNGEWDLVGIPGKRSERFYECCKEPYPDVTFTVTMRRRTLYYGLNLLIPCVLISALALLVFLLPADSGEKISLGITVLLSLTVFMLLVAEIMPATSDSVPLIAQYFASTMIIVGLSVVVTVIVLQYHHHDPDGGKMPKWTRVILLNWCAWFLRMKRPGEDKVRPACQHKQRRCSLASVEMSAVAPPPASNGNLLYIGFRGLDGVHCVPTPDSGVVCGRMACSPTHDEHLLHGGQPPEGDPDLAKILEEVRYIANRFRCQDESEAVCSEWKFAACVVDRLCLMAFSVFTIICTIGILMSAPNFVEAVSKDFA

[2] = target: T1, Neuronal acetylcholine receptor subunit alpha-7; test: Antagonist activity at human alpha7 nAChR expressed in Xenopus laevis oocytes assessed as inhibition of Ach-induced current at 30 uM measured at holding potential of -90 mV by two electrode voltage-clamp assay relative to control; format: cell-based; details: Oocyte
[3] = target: T1, Neuronal acetylcholine receptor subunit alpha-7; test: Antagonist activity at human alpha7 nAChR expressed in Xenopus laevis oocytes assessed as inhibition of Ach-induced current measured at holding potential of -90 mV by two electrode voltage-clamp assay; format: cell-based, Oocyte
[4] = target: T2, Neuronal acetylcholine receptor; alpha3/beta4 (Rattus norvegicus) (UniProt P04757+P12392); test: Antagonist activity at rat alpha3beta4 nAChR expressed in Xenopus laevis oocytes assessed as effect on nAChR current measured at holding potential of -90 mV by two electrode voltage-clamp assay; format: cell-based; details: Oocyte, dose 10.0 µM
[5] = target: T2, Neuronal acetylcholine receptor; alpha3/beta4 (Rattus norvegicus); test: Antagonist activity at rat alpha3beta4 nAChR expressed in Xenopus laevis oocytes assessed as inhibition of Ach-induced current at 10 uM measured at holding potential of -90 mV by two electrode voltage-clamp assay relative to control; format: cell-based; details: Oocyte
[6] = target: T3, Neuronal acetylcholine receptor; alpha4/beta2 (Rattus norvegicus) (UniProt P09483+P12390); test: Antagonist activity at rat alpha4beta2 nAChR expressed in Xenopus laevis oocytes assessed as effect on nAChR current at 10 uM measured at holding potential of -90 mV by two electrode voltage-clamp assay; format: cell-based; details: Oocyte
[7] = target: T3, Neuronal acetylcholine receptor; alpha4/beta2 (Rattus norvegicus); test: Antagonist activity at rat alpha4beta2 nAChR expressed in Xenopus laevis oocytes assessed as inhibition of Ach-induced current at 10 uM measured at holding potential of -90 mV by two electrode voltage-clamp assay relative to control; format: cell-based; details: Oocyte
[8] = Selectivity index, ratio of IC50 for rat alpha4beta2 nAChR expressed in Xenopus laevis oocytes to IC50 for human alpha7 nAChR expressed in Xenopus laevis oocytes; format: cell-based
[9] = target: Neuronal acetylcholine receptor; alpha4/beta2 (Rattus norvegicus, UniProt P09483+P12390); test: Antagonist activity at rat alpha4beta2 nAChR expressed in Xenopus laevis oocytes assessed as inhibition of Ach-induced current measured at holding potential of -90 mV by two electrode voltage-clamp assay; format: cell-based, Oocyte
Sequence of Neuronal acetylcholine receptor; alpha4/beta2 (P09483 whole entry): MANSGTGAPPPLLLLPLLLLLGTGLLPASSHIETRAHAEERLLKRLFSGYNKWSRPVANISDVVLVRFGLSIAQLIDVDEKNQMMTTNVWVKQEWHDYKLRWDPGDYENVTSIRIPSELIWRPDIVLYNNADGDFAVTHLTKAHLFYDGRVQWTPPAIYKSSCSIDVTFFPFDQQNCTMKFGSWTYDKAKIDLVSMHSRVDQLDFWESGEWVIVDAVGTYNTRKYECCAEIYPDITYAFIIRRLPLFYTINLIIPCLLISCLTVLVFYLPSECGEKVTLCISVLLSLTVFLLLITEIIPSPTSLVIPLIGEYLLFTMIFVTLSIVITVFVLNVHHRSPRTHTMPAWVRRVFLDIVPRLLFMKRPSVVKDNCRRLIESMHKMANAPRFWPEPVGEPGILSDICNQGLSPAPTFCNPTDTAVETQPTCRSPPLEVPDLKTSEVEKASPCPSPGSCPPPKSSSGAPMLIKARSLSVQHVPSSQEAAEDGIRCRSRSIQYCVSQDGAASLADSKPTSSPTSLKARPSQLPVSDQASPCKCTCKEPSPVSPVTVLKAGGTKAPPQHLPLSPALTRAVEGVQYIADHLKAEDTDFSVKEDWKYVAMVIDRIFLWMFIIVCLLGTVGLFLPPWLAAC
Sequence of Neuronal acetylcholine receptor; alpha4/beta2 (P12390 whole entry): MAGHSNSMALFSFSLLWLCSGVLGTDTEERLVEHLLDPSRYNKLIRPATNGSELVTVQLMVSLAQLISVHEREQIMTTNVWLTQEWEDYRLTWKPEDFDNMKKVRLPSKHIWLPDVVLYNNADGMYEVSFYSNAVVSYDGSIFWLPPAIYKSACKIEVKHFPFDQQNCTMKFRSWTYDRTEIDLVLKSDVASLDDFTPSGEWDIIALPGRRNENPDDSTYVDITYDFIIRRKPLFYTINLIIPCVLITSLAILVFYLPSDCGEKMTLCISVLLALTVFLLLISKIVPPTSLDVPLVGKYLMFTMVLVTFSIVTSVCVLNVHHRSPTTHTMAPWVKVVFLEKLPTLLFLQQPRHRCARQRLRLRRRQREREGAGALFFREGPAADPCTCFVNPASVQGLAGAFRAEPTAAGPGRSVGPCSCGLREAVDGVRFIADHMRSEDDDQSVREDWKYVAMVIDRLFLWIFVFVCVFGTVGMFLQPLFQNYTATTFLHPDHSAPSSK

For Cc1ccccc1-c1ccc(C2=NOC3(CCN(Cc4ccccc4)CC3)N2)cc1, the inhibition ([1]; filed as antagonist) was 72% and the inhibition [2] was “inactive”.
In the case of CN1CCC2(CC1)NC(c1ccc(Br)nc1)=NO2, the inhibition ([1]; filed as antagonist) is reported as 83.4% and the inhibition ([2]; filed as antagonist) is reported as 44.1%.
c1ccc(CN2CCC3(CC2)NC(c2ccc(-c4cccnc4)cc2)=NO3)cc1 gave an inhibition ([1]; filed as antagonist) of 81.1% and an inhibition ([2]; filed as antagonist) of 65%.
c1ccc(CN2CCC3(CC2)NC(c2ccccc2)=NO3)cc1 showed an IC50 [3] of 13.7 µM, an inhibition ([1]; filed as antagonist) of 98.2% and an inhibition ([2]; filed as antagonist) of 70.4%.
Brc1ccc(C2=NOC3(CCN(Cc4ccccc4)CC3)N2)cc1 showed an IC50 [3] of 6 µM, an inhibition ([1]; filed as antagonist) of 91.5% and an inhibition ([2]; filed as antagonist) of 90.8%.
In the case of COc1cccc(-c2ccc(C3=NOC4(CCN(Cc5ccccc5)CC4)N3)cn2)c1, the inhibition ([1]; filed as antagonist) is reported as 58.2% and the inhibition [2] is reported as “inactive”.
With c1cc(CN2CCC3(CC2)NC(c2nccs2)=NO3)ccn1 the inhibition [1] was 18.8% and the inhibition [2] was “inactive”.
In the case of CC(C)(C)OC(=O)N1CCC2(CC1)NC(c1ccccc1)=NO2, the inhibition ([1]; filed as antagonist) is reported as 73.5% and the inhibition [2] is reported as “inactive”.
For c1ccc(CN2CCC3(CC2)NC(c2ccc(-c4ccncc4)cc2)=NO3)cc1, the inhibition ([1]; filed as antagonist) was 75.2% and the inhibition [2] was “inactive”.
Compound Nc1cccc(-c2ccc(C3=NOC4(CCN(Cc5ccccc5)CC4)N3)cn2)c1 has an inhibition ([1]; filed as antagonist) of 87.2% and an inhibition ([2]; filed as antagonist) of 61.8%.
For FC(F)(F)c1ccc(-c2ccc(C3=NOC4(CCN(Cc5ccccc5)CC4)N3)cc2)cc1, the inhibition [1] was 36.5% and the inhibition [2] was “inactive”.
For c1ccc(C2=NOC3(CCN(Cc4ccccn4)CC3)N2)cc1, the inhibition ([1]; filed as antagonist) was 70.2% and the inhibition [2] was “inactive”.
For FC(F)(F)c1cccc(-c2ccc(C3=NOC4(CCN(Cc5ccccc5)CC4)N3)cc2)c1, the inhibition ([1]; filed as antagonist) was 67% and the inhibition [2] was “inactive”.
For c1ccc(CN2CCC3(CC2)NC(c2ccccn2)=NO3)cc1, the inhibition ([1]; filed as antagonist) was 68.7% and the inhibition [2] was “inactive”.
For c1ccc(CN2CCC3(CC2)NC(c2ccc(-c4ccccc4)cc2)=NO3)cc1, the inhibition ([1]; filed as antagonist) was 71.4% and the inhibition [2] was “inactive”.
In the case of COc1cccc(-c2ccc(C3=NOC4(CCN(C)CC4)N3)cc2)c1, the inhibition ([1]; filed as antagonist) is reported as 93.2% and the inhibition ([2]; filed as antagonist) is reported as 81.3%.
In the case of c1ccc(CN2CCC3(CC2)NC(c2cccs2)=NO3)cc1, the inhibition ([1]; filed as antagonist) is reported as 74.9% and the inhibition [2] is reported as “inactive”.
Work on Cc1cccc(-c2ccc(C3=NOC4(CCN(Cc5ccccc5)CC4)N3)cc2)c1 yielded an inhibition ([1]; filed as antagonist) of 80.1% and an inhibition [2] of 30%.
For c1ccc(CN2CCC3(CC2)NC(c2n[nH]c4ccccc24)=NO3)cc1, the inhibition ([1]; filed as antagonist) was 69.8% and the inhibition [2] was “inactive”.
With COc1cc(-c2ccc(C3=NOC4(CCN(Cc5ccccc5)CC4)N3)cc2)ccn1 the inhibition ([1]; filed as antagonist) was 89.9% and the inhibition ([2]; filed as antagonist) was 54.7%.
For COc1cc(OC)cc(-c2ccc(C3=NOC4(CCN(Cc5ccccc5)CC4)N3)cc2)c1, the inhibition ([1]; filed as antagonist) was 73% and the inhibition [2] was “inactive”.
In the case of Cc1cccc(C2=NOC3(CCN(Cc4ccccc4)CC3)N2)c1, the inhibition ([1]; filed as antagonist) is reported as 75.4% and the inhibition [2] is reported as “inactive”.
For Cc1ccc(-c2ccc(C3=NOC4(CCN(Cc5ccccc5)CC4)N3)cc2)cc1, the inhibition [1] was 34.9% and the inhibition [2] was “inactive”.
With c1ccc(CN2CCC3(CC2)NC(c2nccs2)=NO3)nc1 the inhibition ([1]; filed as antagonist) was 80% and the inhibition [2] was 39.3%.
In the case of COc1ccc(C2=NOC3(CCN(Cc4ccccc4)CC3)N2)c(OC)c1, the inhibition ([1]; filed as antagonist) is reported as 79.1% and the inhibition [2] is reported as “inactive”.
COc1cccc(-c2ccc(C3=NOC4(CCN(Cc5ccccc5)CC4)N3)cc2)c1 gave an inhibition ([1]; filed as antagonist) of 95.6% and an inhibition ([2]; filed as antagonist) of 76.9%.
With Fc1ccc(C2=NOC3(CCN(Cc4ccccc4)CC3)N2)cc1 the inhibition ([1]; filed as antagonist) was 78.3% and the inhibition [2] was “inactive”.
With c1ccc(CN2CCC3(CC2)NC(c2cc4ccccc4cn2)=NO3)cc1 the inhibition ([1]; filed as antagonist) was 91.1% and the inhibition ([2]; filed as antagonist) was 76.6%.
For Fc1ccc(-c2ccc(C3=NOC4(CCN(Cc5ccccc5)CC4)N3)cc2)cc1, the inhibition ([1]; filed as antagonist) was 42.4% and the inhibition [2] was “inactive”.
In the case of Nc1cccc(-c2ccc(C3=NOC4(CCN(Cc5ccccc5)CC4)N3)cc2)c1, the inhibition ([1]; filed as antagonist) is reported as 93.5% and the inhibition ([2]; filed as antagonist) is reported as 60.1%.
Compound Brc1ccc(C2=NOC3(CCN(Cc4ccccc4)CC3)N2)cn1 has an inhibition ([1]; filed as antagonist) of 90.3% and an inhibition ([2]; filed as antagonist) of 63.7%.
In the case of CCOC(=O)N1CCC2(CC1)NC(c1ccccc1)=NO2, the inhibition ([1]; filed as antagonist) is reported as 75.1% and the inhibition [2] is reported as “inactive”.
Compound Oc1cccc(-c2ccc(C3=NOC4(CCN(Cc5ccccc5)CC4)N3)cc2)c1 has an inhibition ([1]; filed as antagonist) of 80.4% and an inhibition ([2]; filed as antagonist) of 59%.
For COc1cc(-c2ccc(C3=NOC4(CCN(C)CC4)N3)cc2)ccn1, the IC50 [3] was 3.3 µM, the inhibition ([1]; filed as antagonist) was 93.4% and the inhibition ([2]; filed as antagonist) was 86.1%.
In the case of Fc1ccc(CN2CCC3(CC2)NC(C2CC2)=NO3)cc1, the inhibition ([1]; filed as antagonist) is reported as 83.9% and the inhibition ([2]; filed as antagonist) is reported as 52.8%.
Work on c1ccc(CN2CCC3(CC2)NC(c2cc4ccccc4cn2)=NO3)nc1 yielded an inhibition ([1]; filed as antagonist) of 80% and an inhibition [2] of 37.9%.
For c1ccc2cc(C3=NOC4(CCN(Cc5ccncc5)CC4)N3)ncc2c1, the inhibition ([1]; filed as antagonist) was 58.2% and the inhibition [2] was “inactive”.
With CCOC(=O)N1CCC2(CC1)NC(c1ccc(Br)cc1)=NO2 the inhibition ([1]; filed as antagonist) was 58.1% and the inhibition [2] was “inactive”.
c1ccc(CN2CCC3(CC2)NC(c2nccs2)=NO3)cc1 gave an inhibition ([1]; filed as antagonist) of 94.5% and an inhibition ([2]; filed as antagonist) of 65.1%.
Clc1ccc(C2=NOC3(CCN(Cc4ccccc4)CC3)N2)cc1 showed an inhibition ([1]; filed as antagonist) of 90.7% and an inhibition ([2]; filed as antagonist) of 77.4%.
Compound Fc1cccc(C2=NOC3(CCN(Cc4ccccc4)CC3)N2)c1 has an inhibition ([1]; filed as antagonist) of 83.1% and an inhibition ([2]; filed as antagonist) of 65.9%.
In the case of CN(C)c1cccc(-c2ccc(C3=NOC4(CCN(Cc5ccccc5)CC4)N3)cc2)c1, the inhibition ([1]; filed as antagonist) is reported as 81.1% and the inhibition [2] is reported as 39.5%.
For CN1CCC2(CC1)NC(c1ccc(-c3cccc(N)c3)cc1)=NO2, the inhibition ([1]; filed as antagonist) was 78.2% and the inhibition [2] was “inactive”.
With CC(C)c1cccc(-c2ccc(C3=NOC4(CCN(Cc5ccccc5)CC4)N3)cc2)c1 the inhibition [1] was 26.2% and the inhibition [2] was “inactive”.
For CN1CCC2(CC1)NC(c1nccs1)=NO2, the inhibition ([1]; filed as antagonist) was 87.4% and the inhibition ([2]; filed as antagonist) was 69.7%.
With CN1CCC2(CC1)NC(c1ccc(Br)cc1)=NO2 the IC50 [3] was 5.4 µM, the Activity [4] was “inactive” and the inhibition [5] was 20%. The Activity [6] was “inactive”, the inhibition ([1]; filed as antagonist) was 97.4% and the inhibition [7] was 24%. The Ratio IC50 [8] was 6, the inhibition ([2]; filed as antagonist) was 91.8% and the IC50 [9] was 32 µM.
With Clc1ccc(-c2ccc(C3=NOC4(CCN(Cc5ccccc5)CC4)N3)cc2)cc1 the inhibition ([1]; filed as antagonist) was 52.8% and the inhibition [2] was “inactive”.
With COc1ccc(-c2ccc(C3=NOC4(CCN(Cc5ccccc5)CC4)N3)cc2)cc1 the inhibition ([1]; filed as antagonist) was 40.5% and the inhibition [2] was “inactive”.
In the case of c1ccc(CN2CCC3(CC2)NC(c2ccc(-c4cccs4)cc2)=NO3)cc1, the inhibition ([1]; filed as antagonist) is reported as 71.1% and the inhibition [2] is reported as “inactive”.
Work on CN1CCC2(CC1)NC(c1ccccc1)=NO2 yielded an IC50 [3] of 4.4 µM, an inhibition ([1]; filed as antagonist) of 96.7% and an inhibition ([2]; filed as antagonist) of 90.4%.
For c1ccc(CN2CCC3(CC2)NC(C2CC2)=NO3)cc1, the inhibition ([1]; filed as antagonist) was 83.9% and the inhibition ([2]; filed as antagonist) was 52.2%.
In the case of COc1ccc(C2=NOC3(CCN(Cc4ccccc4)CC3)N2)cc1, the inhibition ([1]; filed as antagonist) is reported as 79.6% and the inhibition [2] is reported as “inactive”.
